In BindingDB's records for patent US20240199605 (Janssen Pharmaceutica, 2024):

Molecular target: Mitogen-activated protein kinase kinase kinase 14 (Homo sapiens, UniProt Q99558)
Assay: Inhibition of auto-phosphorylation of recombinant human NF-kappaB-inducing kinase (NIK/MAP3K14) activity (AlphaScreen)
Method: All compounds tested were dissolved in dimethyl sulfoxide (DMSO) and further dilutions were made in assay buffer. The final DMSO concentration was 0.7% (v/v) in assays. […] The assays were carried out in 384 well Proxiplates (Perkin Elmer).

Chain of Mitogen-activated protein kinase kinase kinase 14 (Q99558 whole entry): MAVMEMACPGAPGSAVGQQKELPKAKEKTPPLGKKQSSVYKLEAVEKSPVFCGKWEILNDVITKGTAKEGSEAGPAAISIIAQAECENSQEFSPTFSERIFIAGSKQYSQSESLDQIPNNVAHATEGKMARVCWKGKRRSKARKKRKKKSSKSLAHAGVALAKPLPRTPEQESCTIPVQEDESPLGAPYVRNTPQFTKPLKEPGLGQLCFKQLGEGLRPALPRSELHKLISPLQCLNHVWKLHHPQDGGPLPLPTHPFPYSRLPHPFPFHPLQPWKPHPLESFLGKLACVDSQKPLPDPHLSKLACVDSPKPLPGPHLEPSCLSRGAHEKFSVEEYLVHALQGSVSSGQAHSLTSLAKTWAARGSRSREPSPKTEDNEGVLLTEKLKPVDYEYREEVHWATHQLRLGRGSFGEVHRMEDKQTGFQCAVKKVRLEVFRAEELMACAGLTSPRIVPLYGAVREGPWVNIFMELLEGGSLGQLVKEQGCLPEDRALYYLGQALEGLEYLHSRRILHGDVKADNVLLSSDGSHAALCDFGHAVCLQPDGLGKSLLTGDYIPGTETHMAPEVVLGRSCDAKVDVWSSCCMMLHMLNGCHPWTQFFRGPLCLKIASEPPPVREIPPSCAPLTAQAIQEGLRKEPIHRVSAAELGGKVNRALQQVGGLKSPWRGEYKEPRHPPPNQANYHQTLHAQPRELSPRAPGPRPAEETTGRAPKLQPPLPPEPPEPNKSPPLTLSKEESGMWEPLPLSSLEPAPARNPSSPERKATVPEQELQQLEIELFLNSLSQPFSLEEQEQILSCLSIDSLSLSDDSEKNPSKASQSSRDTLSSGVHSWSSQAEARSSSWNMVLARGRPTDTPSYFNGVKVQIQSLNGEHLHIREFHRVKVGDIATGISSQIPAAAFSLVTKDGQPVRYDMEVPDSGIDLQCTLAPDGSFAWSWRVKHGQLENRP

IC50: 0.8 nM
Compound: Cc1cc(C#C[C@]2(O)CCN(C)C2=O)cc(-c2nc3c(N)ncnc3s2)c1 [US20240199605, Example 153]
